PMC6151468, “Efficacy of Bioactive Cyclic Peptides in Rheumatoid Arthritis: Translation from In Vitro to In Vivo Models” (Molecules : A Journal of Synthetic Chemistry and Natural …, 2017)

System: Collagen Antibody-Induced Arthritis (CAIA) model
Assay: CAIA model in mice, first study
Assay type: in vivo
Details: ten-day period; Humira 10 mg/kg bolus day 1; Lex 5.2 0.32 mg/kg/day i.p.; compared with stimulated untreated animals; Figure 11
Text: In light of the ability of cyclic peptides to alter the behaviour of macrophages, down-regulating TNF secretion both in vitro and in vivo, the investigation was extended to examine whether such peptides could have an impact on inflammatory diseases such as rheumatoid arthritis, where activation of macrophages, and secretion of TNF, is an important component. The CAIA model was chosen, as its use of lipopolysaccharide as one of the stimulants mirrors the models already employed. The other inducer of inflammation is a cocktail of anti-collagen antibodies, which are agents thought to contribute to disease in the human condition. A scheme of the experimental design is shown in Figure 8, and detailed methodology is provided in the Materials and Methods section of this article. […]
A range of different parameters was measured, as follows: (i) clinical score—a subjective assessment of the number of joints in each paw affected; (ii) paw thickness—measurement of oedema in the paws, reflecting the severity of inflammation; (iii) TNF levels—rise in the bloodstream immediately after LPS administration; (iv) weight change—loss of weight resulting from inflammation. […]

## adalimumab [Humira]
  Change in weight: much reduced
